From ChEMBL document CHEMBL3872249, “Computer design, synthesis, and bioactivity analyses of drugs like fingolimod used in the treatment of multiple sclerosis” (Bioorg Med Chem, 2017)

Tests used:
Type in all cases: functional
SK-N-SH [1] = experiment: Effect on AGTR2 mRNA expression in human SK-N-SH cells at EC10 by qPCR method relative to beta-actin
SK-N-SH [2] = experiment: Effect on TSHR mRNA expression in human SK-N-SH cells at EC10 by qPCR method relative to beta-actin
SK-N-SH [3] = experiment: Effect on CCL3 mRNA expression in human SK-N-SH cells at EC10 by qPCR method relative to beta-actin
U-118-MG [4] = experiment: Effect on MAG mRNA expression in human U118MG cells at EC10 by qPCR method relative to beta-actin
U-118-MG [5] = experiment: Effect on EPHA1 mRNA expression in human U118MG cells at EC10 by qPCR method relative to beta-actin
SK-N-SH [6] = experiment: Effect on VCAM1 mRNA expression in human SK-N-SH cells at EC10 by qPCR method relative to beta-actin
SK-N-SH [7] = experiment: Effect on FOXP3 mRNA expression in human SK-N-SH cells at EC10 by qPCR method relative to beta-actin
SK-N-SH [8] = experiment: Effect on NOS2 mRNA expression in human SK-N-SH cells at EC10 by qPCR method relative to beta-actin
SK-N-SH [9] = experiment: Effect on IFNG mRNA expression in human SK-N-SH cells at EC10 by qPCR method relative to beta-actin
SH-SY5Y [10] = experiment: Effect on NOS2 mRNA expression in human SH-SY5Y cells at EC10 by qPCR method relative to beta-actin
SH-SY5Y [11] = experiment: Effect on FASLG mRNA expression in human SH-SY5Y cells at EC10 by qPCR method relative to beta-actin
U-118-MG [12] = experiment: Effect on NOS2 mRNA expression in human U118MG cells at EC10 by qPCR method relative to beta-actin
SH-SY5Y [13] = experiment: Effect on TSHR mRNA expression in human SH-SY5Y cells at EC10 by qPCR method relative to beta-actin
SH-SY5Y [14] = experiment: Effect on IFNG mRNA expression in human SH-SY5Y cells at EC10 by qPCR method relative to beta-actin
SH-SY5Y [15] = experiment: Effect on GRM1 mRNA expression in human SH-SY5Y cells at EC10 by qPCR method relative to beta-actin
U-118-MG [16] = experiment: Effect on CCL3 mRNA expression in human U118MG cells at EC10 by qPCR method relative to beta-actin
U-118-MG [17] = experiment: Effect on AKT1 mRNA expression in human U118MG cells at EC10 by qPCR method relative to beta-actin
SH-SY5Y [18] = experiment: Effect on BCL2 mRNA expression in human SH-SY5Y cells at EC10 by qPCR method relative to beta-actin
SH-SY5Y [19] = experiment: Effect on PIK3CG mRNA expression in human SH-SY5Y cells at EC10 by qPCR method relative to beta-actin
SH-SY5Y [20] = experiment: Effect on EDNRA mRNA expression in human SH-SY5Y cells at EC10 by qPCR method relative to beta-actin
SK-N-SH [21] = experiment: Effect on PIK3CG mRNA expression in human SK-N-SH cells at EC10 by qPCR method relative to beta-actin
SK-N-SH [22] = experiment: Effect on COL1A1 mRNA expression in human SK-N-SH cells at EC10 by qPCR method relative to beta-actin
U-118-MG [23] = experiment: Effect on DRD2 mRNA expression in human U118MG cells at EC10 by qPCR method relative to beta-actin
U-118-MG [24] = experiment: Effect on MYC mRNA expression in human U118MG cells at EC10 by qPCR method relative to beta-actin
SH-SY5Y [25] = experiment: Effect on STAT3 mRNA expression in human SH-SY5Y cells at EC10 by qPCR method relative to beta-actin
U-118-MG [26] = experiment: Effect on FGF2 mRNA expression in human U118MG cells at EC10 by qPCR method relative to beta-actin
SK-N-SH [27] = experiment: Effect on MMP9 mRNA expression in human SK-N-SH cells at EC10 by qPCR method relative to beta-actin
SH-SY5Y [28] = experiment: Effect on MYC mRNA expression in human SH-SY5Y cells at EC10 by qPCR method relative to beta-actin
SK-N-SH [29] = experiment: Effect on STAT3 mRNA expression in human SK-N-SH cells at EC10 by qPCR method relative to beta-actin
SK-N-SH [30] = experiment: Effect on GRM5 mRNA expression in human SK-N-SH cells at EC10 by qPCR method relative to beta-actin
SK-N-SH [31] = experiment: Effect on ICAM1 mRNA expression in human SK-N-SH cells at EC10 by qPCR method relative to beta-actin
SK-N-SH [32] = experiment: Effect on CSF1 mRNA expression in human SK-N-SH cells at EC10 by qPCR method relative to beta-actin
SK-N-SH [33] = experiment: Effect on OPRD1 mRNA expression in human SK-N-SH cells at EC10 by qPCR method relative to beta-actin
SH-SY5Y [34] = experiment: Effect on COL1A1 mRNA expression in human SH-SY5Y cells at EC10 by qPCR method relative to beta-actin
SH-SY5Y [35] = experiment: Effect on ADRB2 mRNA expression in human SH-SY5Y cells at EC10 by qPCR method relative to beta-actin
U-118-MG [36] = experiment: Effect on IL1B mRNA expression in human U118MG cells at EC10 by qPCR method relative to beta-actin
U-118-MG [37] = experiment: Effect on PIK3CG mRNA expression in human U118MG cells at EC10 by qPCR method relative to beta-actin
SK-N-SH [38] = experiment: Effect on JUN mRNA expression in human SK-N-SH cells at EC10 by qPCR method relative to beta-actin
SK-N-SH [39] = experiment: Effect on S1PR3 mRNA expression in human SK-N-SH cells at EC10 by qPCR method relative to beta-actin
U-118-MG [40] = experiment: Effect on CXCL11 mRNA expression in human U118MG cells at EC10 by qPCR method relative to beta-actin
SH-SY5Y [41] = experiment: Effect on C1S mRNA expression in human SH-SY5Y cells at EC10 by qPCR method relative to beta-actin
U-118-MG [42] = experiment: Effect on SOD1 mRNA expression in human U118MG cells at EC10 by qPCR method relative to beta-actin
U-118-MG [43] = experiment: Effect on CXCL9 mRNA expression in human U118MG cells at EC10 by qPCR method relative to beta-actin
SK-N-SH [44] = experiment: Effect on HLA-DRB1 mRNA expression in human SK-N-SH cells at EC10 by qPCR method relative to beta-actin

CCCCCCCCc1ccc(CCC(N)(CO)CO)cc1 [FINGOLIMOD]
fold change (FC) (SK-N-SH [1]): 3.8122
fold change (FC) (SK-N-SH [2]): -4.4134
fold change (FC) (SK-N-SH [3]): -4.0682
fold change (FC) (U-118-MG [4]): 4.0174
fold change (FC) (U-118-MG [5]): -3.7679
fold change (FC) (SK-N-SH [6]): -7.0341
fold change (FC) (SK-N-SH [7]): -4.444
fold change (FC) (SK-N-SH [8]): -5.9976
fold change (FC) (SK-N-SH [9]): -6.428
fold change (FC) (SH-SY5Y [10]): -3.9518
fold change (FC) (SH-SY5Y [11]): -3.0525
fold change (FC) (U-118-MG [12]): -5.6458
fold change (FC) (SH-SY5Y [13]): -4.0629
fold change (FC) (SH-SY5Y [14]): -5.1964
fold change (FC) (SH-SY5Y [15]): -20.6061
fold change (FC) (U-118-MG [16]): -3.4017
fold change (FC) (U-118-MG [17]): -2.5763
fold change (FC) (SH-SY5Y [18]): -4.2945
fold change (FC) (SH-SY5Y [19]): -5.6081
fold change (FC) (SH-SY5Y [20]): 6.8804
fold change (FC) (SK-N-SH [21]): -5.7333
fold change (FC) (SK-N-SH [22]): -3.7305
fold change (FC) (U-118-MG [23]): -2.6579
fold change (FC) (U-118-MG [24]): -4.9203
fold change (FC) (SH-SY5Y [25]): -5.5022
fold change (FC) (U-118-MG [26]): -4.2052
fold change (FC) (SK-N-SH [27]): -13.1489
fold change (FC) (SH-SY5Y [28]): -4.508
fold change (FC) (SK-N-SH [29]): -8.0243
fold change (FC) (SK-N-SH [30]): -5.4523
fold change (FC) (SK-N-SH [31]): -4.0965
fold change (FC) (SK-N-SH [32]): -7.7644
fold change (FC) (SK-N-SH [33]): 4.9782
fold change (FC) (SH-SY5Y [34]): -5.0806
fold change (FC) (SH-SY5Y [35]): -11.1967
fold change (FC) (U-118-MG [36]): -4.3432
fold change (FC) (U-118-MG [37]): -3.7491
fold change (FC) (SK-N-SH [38]): -2.7499

CCCCCCCCn1nnnc1CCC(N)(CO)CO.Cl
fold change (FC) (SK-N-SH [1]): 9.0827
fold change (FC) (SK-N-SH [2]): 5.2621
fold change (FC) (U-118-MG [5]): -4.2116
fold change (FC) (SK-N-SH [6]): -5.4618
fold change (FC) (SK-N-SH [7]): -3.4447
fold change (FC) (SK-N-SH [8]): -5.1582
fold change (FC) (SK-N-SH [9]): -3.6601
fold change (FC) (SH-SY5Y [10]): -4.7071
fold change (FC) (U-118-MG [12]): -4.0673
fold change (FC) (SK-N-SH [39]): -4.0052
fold change (FC) (SH-SY5Y [13]): 4.7801
fold change (FC) (SH-SY5Y [14]): -2.7247
fold change (FC) (SH-SY5Y [15]): -4.806
fold change (FC) (U-118-MG [17]): -2.6892
fold change (FC) (SH-SY5Y [18]): -4.8227
fold change (FC) (SH-SY5Y [19]): -3.5167
fold change (FC) (SH-SY5Y [20]): 3.6859
fold change (FC) (U-118-MG [40]): -2.9665
fold change (FC) (SK-N-SH [21]): -7.7108
fold change (FC) (SK-N-SH [22]): -3.842
fold change (FC) (U-118-MG [23]): -2.5398
fold change (FC) (U-118-MG [24]): -4.1285
fold change (FC) (SH-SY5Y [25]): -2.8938
fold change (FC) (U-118-MG [26]): -4.6964
fold change (FC) (SK-N-SH [27]): -5.1049
fold change (FC) (SH-SY5Y [28]): -5.0669
fold change (FC) (SK-N-SH [29]): -5.0696
fold change (FC) (SK-N-SH [31]): -9.5591
fold change (FC) (SK-N-SH [32]): -3.004
fold change (FC) (SK-N-SH [33]): 3.2561
fold change (FC) (SH-SY5Y [34]): -4.939
fold change (FC) (SH-SY5Y [35]): -4.5291
fold change (FC) (U-118-MG [36]): -3.0275
fold change (FC) (SH-SY5Y [41]): -2.6686
fold change (FC) (U-118-MG [37]): -4.5938
fold change (FC) (SK-N-SH [38]): -7.2696

CCCCCCCCn1nnnc1-c1ccc(C(O)CC(N)(CO)CO)cc1.Cl (configuration not stated)
fold change (FC) (SK-N-SH [3]): -5.716
fold change (FC) (U-118-MG [4]): 3.7859
fold change (FC) (U-118-MG [42]): 5.2803
fold change (FC) (SK-N-SH [39]): -4.5159
fold change (FC) (U-118-MG [43]): -4.1536
fold change (FC) (U-118-MG [16]): -3.7241
fold change (FC) (U-118-MG [40]): -4.2262
fold change (FC) (SK-N-SH [44]): -4.1339
